Experimental data reported in patent publication US20230257385A1, “SALT AND SOLID FORMS OF TABERNANTHALOG” (priority 2021, published 2023).

Experiments:
[1] = SIF buffer solubility panel (FaSSIF, FeSSIF, FaSSGF); assay type: physicochemical; conditions: 37° C., up to 24 h (timepoints t=0, 1 h, 3 h, 6 h, 24 h)
[2] = DVS 0 to 90 to 0% RH (mass equilibrated); assay type: physicochemical
[3] = Thermal study: glass transition temperature (Tg) of amorphous monofumarate and sorbate; assay type: physicochemical
Procedure: Each salt was analysed by DSC and TGA to determine the Tg of the amorphous form. Amorphous forms were generated by thermocycling the salt past the melt temperature, cooling the sample, and once cooled the samples were reheated. Open pan and sealed pan DSC were utilised, open pan DSC were heated past the melt event, cooled, and left to stand under ambient conditions overnight.
Sealed pans were immediately cycled with no time left to stand.
TGA (open pan) samples were analysed by thermocycle, with no time for the sample to stand under ambient conditions.
The amorphous forms were generated in these studies and characterised with their Tg being measured.
A hot stage microscope heating block was used to generate the amorphous phase in-situ, to allow analysis by XRPD. A silicon XRPD sample plate was loaded with the appropriate salt. The plate was heated past the melt event, removed from the hot stage microscope block and cooled to ambient in air and analysed by XRPD to ensure that the amorphous form was generated. The amorphous material was then analysed by ^1H NMR and LC-MS to ensure there was no change in chemical composition.
Two DSC pans were charge with the appropriate salt (Tabernanthalog·Sorbate, A1270−076-A1 and Tabernanthalog·Monofumarate, Tabernanthalog·Monofumarate), the first DSC pan was not sealed (open pan DSC), the second was sealed (hermetic sealed pan DSC). The open pan DSC was cycled from 20° C. to just after the melt event for each, cooled to −20° C. and left to stand under ambient conditions over night. The open pan DSC was then heated to just before the thermal degradation event (Tabernanthalog·Sorbate ca. 160° C., Tabernanthalog·Monofumarate ca. 210° C.) The hermetic sealed DSC was heated from 20° C. to just after the melt event, cooled to −20° C. then headed to just before the same degradation event.
Two TGA crucibles were charged with the appropriate salt (Tabemanthalog·Sorbate, A1270-076-A1, Tabernanthalog·Monofumarate, Tabernanthalog·Monofumarate), both were thermocycled from 20° C. to past the melt event and then cooled to −20° C., each pan was then immediately heated to just before the degradation event to measure the Tg event.

[4] = Amorphous study (freeze drying, evaporation, spray drying, bead milling) of monofumarate and sorbate; assay type: physicochemical; conditions: 50 mg
Source text: The purpose of this study was to generate amorphous material to be characterized and used in water activity studies. To achieve this, the two salts were exposed to a variety of techniques in attempts to generate the amorphous forms, including freeze drying, evaporation, vacuum desiccation and cryodesiccation spray drying. These techniques were not successful for the two salts Tabernanthalog·Monofumarate and Tabernanthalog·Sorbate.
Bead milling was attempted to generate the amorphous form of Tabernanthalog·Sorbate (Tabernanthalog·Sorbate, Form A). The salt underwent neat milling and separately with the addition of tetradecafluorohexane (TDFH). The following experiments were performed: Experiment 6-Sample A1 (30 Hz, 2 h), Experiment 6-Sample A2 (30 Hz, 5.5 h) and Experiment 6-Sample A3 (30 Hz 1 h, TDFH), the products from each experiment was analysed by XRPD to determine the extent of crystallinity (FIG. 812). None of the experiments provided amorphous material.
Each salt was charged to a 7 ml vial (50 mg, 1.0 wt). To the vial containing Tabernanthalog·Monofumarate (Tabernanthalog·Monofumarate), was charged water (10.0 vol), to fully dissolve the sample. Tabernanthalog·Sorbate (A1270-076-A1) was taken-up in ethanol/water (15% v/v, 10 vol), a further charge of water (1.0 ml), was added to ensure that the sample dissolved.
Vials containing the salt solutions were placed on the freeze drier apparatus overnight, and the cryo-desiccated products were recovered the following morning and analysed by XRPD each product remained crystalline.
Tabernanthalog·Monofumarate (A1272−082-A2, 51.1 mg, 1.0 wt) was charged to a 7 ml scintillation vial followed by THE (2 ml, […]), the suspension was heated to 50° C., until full dissolution was observed. The vial was stoppered by foil and a pin hole was pierced in the top. The vial was located under a steady N2 stream.
Tabernanthalog·Sorbate (A1270−076-A1, 99.4 mg, 1.0 wt) was charged to a 7 ml scintillation vial, followed by hexafluoroisopropanol (HFIPA, 5.0 vol, 0.5 ml), after which, the sample fully dissolved. The cap was replaced by foil and pierced on the top. Solvent was allowed to evaporate, to afford a dry, brown solid that was analysed by XRPD yielding crystalline pattern #7. Sample were dried under N2 stream for 5 h and reanalysed by XRPD, remaining as pattern #7
Tabernanthalog·Sorbate (A1270−076-A1, 50.0 mg, 1.0 wt) was charged to a 7 ml scintillation vial followed by hexafluoroisopropanol (HFIPA, 0.5 ml, 10 vol), to yield a clear solution. The solution was concentrated to dryness, by rotary evaporation, yielding an oil, that was allowed to stand undisturbed overnight.
Tabernanthalog·Sorbate (A1270−076-A1, 50.0 mg, 1.0 wt) was charged to a 7 ml scintillation vial, followed by methanol (300 μl, 6.0 vol). The solution was clarified by filtration into a 7 ml scintillation vial, containing diethyl ether (1.0 ml, 20.0 vol).
Tabernanthalog·Sorbate (A1270−076-A1, 102 mg, 1 wt) was charged to a 7.0 ml scintillation vial followed by methanol (1.9 ml, 19.0 vol). The solution was loaded into the spray drier apparatus.
The procedure yielded a brown powder (30 mg, 30% th.).
Tabernanthalog·Sorbate (A1270-076-A1, Form A) was charged to a 1.5 ml steel milling-vessel with a single 5 mm ball bearing. The sample was milled for 5.5 h at 30 Hz and yielded an off-white powder, that was analysed by XRPD, no change in crystallinity.

[5] = Solubility determinations in SIF buffers FaSSIF, FeSSIF, FaSSGF (Example 8, Experiment 5)
Procedure: The temperature was maintained at 37° C. for 24 h. […] The suspensions were sampled at the relevant time points and centrifuged. The centrifuged pellets, obtained at the time points were analysed by XRPD as a wet pellet and dried, for evidence of form change.
The temperature was maintained at 37° C. for 24 h.
The suspension was sampled at the relevant time points and centrifuged. […] The centrifuged pellets, obtained at the time points were analyzed by XRPD as a wet pellet and dried, for evidence of form change.

[6] = Equilibrium humidity evaluation 75% RH/40° C., 10 days (Example 8, Experiment 6); assay type: physicochemical
Procedure: The experimental procedure that accompany this experiment is provided in Section G.ii.
All forms were maintained under constant equilibrium humidity (75% RH). XRPD, DSC, TGA, PLM and ^1H NMR analyses were performed on the absorbents at t=5 d and t=10 d, to confirm their physical fates and to determine the extent of residual solvent exchange or sequestration.
100 mg portions of Tabernanthalog salts ([…]) were placed in the relevant open vials. The powders were finely divided and distributed evenly over the base of the vial, such that equal material coverage across the panel was observed. These samples were then maintained 40° C. under 75% RH. The samples were sub-sampled at intervals of 5 and 10 days and analyzed by ^1H NMR, HPLC, XRPD, DSC, TGA and PLM, for evidence of phase change or chemical degradation.

[7] = Dynamic vapour sorption (DVS) of selected salts (Example 8); assay type: physicochemical; conditions: 0 to 90 to 0% RH, 25° C., dm/dt 0.002%/min
Procedure: DVS: The moisture sorption properties of the feed API were analyzed by DVS Intrinsic instrument (Surface Measurement System). Approximately 20-50 mg of API was weighed on an aluminum pan and loaded into the instrument equilibrated at 25° C. The sample was allowed to equilibrate under dry atmosphere (0% relative humidity) for 60 minutes before increasing the humidity from 0% to 30% at 5% step increment and from 30% to 90% at 10% step increment. A desorption cycle was also applied from 90% to 30% (10% step) and from 30% to 0% (5% decrement). A rate of change in mass per time unit (dm/dt) of 0.002%/min was set as the equilibrium parameter. Kinetic and isotherm graphs were calculated.

[8] = Amorphisation activity: Crash cool
[9] = Amorphisation activity: Freeze dry
[10] = each timepoint up to 24 h, 37° C.

COc1ccc2c3c([nH]c2c1)CCN(C)CC3 [Pattern #6a (Form A)]
solubility in FaSSGF [1]: soluble
solubility in FaSSIF [1]: soluble
solubility in FeSSIF [1]: soluble
DVS 0 to 90 to 0% RH (dm/dt <0.002%) ([2]; desorption, 0.0% RH): 0.0381%
DVS 0 to 90 to 0% RH (dm/dt <0.002%) ([2]; desorption, 5.0% RH): 0.1179%
DVS 0 to 90 to 0% RH (dm/dt <0.002%) ([2]; desorption, 10.0% RH): 0.1551%
DVS 0 to 90 to 0% RH (dm/dt <0.002%) ([2]; desorption, 15.0% RH): 0.1857%
DVS 0 to 90 to 0% RH (dm/dt <0.002%) ([2]; desorption, 20.0% RH): 0.2126%
DVS 0 to 90 to 0% RH (dm/dt <0.002%) ([2]; desorption, 25.0% RH): 0.2387%
DVS 0 to 90 to 0% RH (dm/dt <0.002%) ([2]; desorption, 30.0% RH): 0.2656%
DVS 0 to 90 to 0% RH (dm/dt <0.002%) ([2]; desorption, 40.0% RH): 0.3210%
DVS 0 to 90 to 0% RH (dm/dt <0.002%) ([2]; desorption, 50.0% RH): 0.3797%
DVS 0 to 90 to 0% RH (dm/dt <0.002%) ([2]; desorption, 60.0% RH): 0.4515%
DVS 0 to 90 to 0% RH (dm/dt <0.002%) ([2]; desorption, 70.0% RH): 0.5442%
DVS 0 to 90 to 0% RH (dm/dt <0.002%) ([2]; desorption, 80.0% RH): 0.6827%
DVS 0 to 90 to 0% RH (dm/dt <0.002%) ([2]; desorption, 90.0% RH): 0.9766%
DVS 0 to 90 to 0% RH (dm/dt <0.002%) ([2]; sorption, 0.0% RH): 0.0004%
DVS 0 to 90 to 0% RH (dm/dt <0.002%) ([2]; sorption, 5.0% RH): 0.0627%
DVS 0 to 90 to 0% RH (dm/dt <0.002%) ([2]; sorption, 10.0% RH): 0.0957%
DVS 0 to 90 to 0% RH (dm/dt <0.002%) ([2]; sorption, 15.0% RH): 0.1397%
DVS 0 to 90 to 0% RH (dm/dt <0.002%) ([2]; sorption, 20.0% RH): 0.1778%
DVS 0 to 90 to 0% RH (dm/dt <0.002%) ([2]; sorption, 25.0% RH): 0.2093%
DVS 0 to 90 to 0% RH (dm/dt <0.002%) ([2]; sorption, 30.0% RH): 0.2401%
DVS 0 to 90 to 0% RH (dm/dt <0.002%) ([2]; sorption, 40.0% RH): 0.3145%
DVS 0 to 90 to 0% RH (dm/dt <0.002%) ([2]; sorption, 50.0% RH): 0.4051%
DVS 0 to 90 to 0% RH (dm/dt <0.002%) ([2]; sorption, 70.0% RH): 0.5451%
DVS 0 to 90 to 0% RH (dm/dt <0.002%) ([2]; sorption, 80.0% RH): 0.6660%
DVS 0 to 90 to 0% RH (dm/dt <0.002%) ([2]; sorption, 90.0% RH): 0.9766%

COc1ccc2c3c([nH]c2c1)CCN(C)CC3.O=C(O)/C=C/C(=O)O [Tabernanthalog•Monofumarate]
Outcome ([3]; Hot plate heat up, sorbate 20 to 170 ° C., monofumarate 20 to 210 ° C.): Amorphous
Outcome ([3]; Hot stage plate heat up, sorbate 20 to 170 ° C., monofumarate 20 to 210 ° C.): Almost Amorphous
Outcome ([3]; Open Pan DSC, sorbate 20 to 165 to −20, O/N 20 to 230 ° C., monofumarate 20 to 210 to −20, O/N 20 to 210 ° C.): Amorphous
Outcome ([3]; Sealed DSC, sorbate 20 to 165 to −20 to 230 ° C., monofumarate 20 to 210 to −20 to 210 ° C.): Amorphous
Outcome ([3]; TGA, sorbate 20 to 165 to −20 to 230 ° C., monofumarate 20 to 210 to −20 to 210 ° C.): Amorphous
Glass temperature (Tgs) ([3]; amorphous form generated in situ, sealed DSC thermocycle (Sample B1)): 63 °C
Form by XRPD [4, 8]: Pattern #3
Outcome [4, 8]: Crystalline
Form by XRPD [4, 9]: Pattern #1
Outcome [4, 9]: Crystalline
Form by XRPD ([4]; Amorphisation activity: THF/N2): Pattern #11
Outcome ([4]; Amorphisation activity: THF/N2): Crystalline

COc1ccc2c3c([nH]c2c1)CCN(C)CC3.O=C(O)c1ccccc1 [tabernanthalog benzoate salt]
solubility in FaSSGF [1]: all dissolved except the tabernanthalog benzoate salt
solubility in FaSSIF [1]: all dissolved except the tabernanthalog benzoate salt
solubility in FeSSIF [1]: all dissolved except the tabernanthalog benzoate salt
behaviour at 30 mg/ml in SIF buffers ([5]; FaSSIF, FeSSIF, FaSSGF, 37° C., 24 h): precipitated in all three SIF buffers
stability of the suspended phase in FaSSIF (XRPD of pellet) [5, 10]: stable and did not disproportionate in FaSSIF
stability of the suspended phase in FeSSIF (XRPD of pellet) [5, 10]: stable and did not disproportionate in FeSSIF
decrease in chemical purity of wet pellets in FaSSIF ([5]; over the time points up to 24 h): ca. 1.22 % area
fate of the suspended phase in FaSSGF (XRPD, 1H NMR) ([5]; up to 24 h, 37° C.): consistent with benzoic acid
change in chemical purity (trended HPLC) ([6]; 75% RH/40° C., after 10 days): did not decrease significantly
water uptake / hydrate formation (TGA, DSC) ([6]; 75% RH/40° C., t=5 d and t=10 d): no significant water uptake
powder diffraction pattern versus input (form stability) ([6]; 75% RH/40° C., t=5 days and t=10 days): consistent with the input
Tabernanthalog RRT = 1.00 (trended HPLC data, chemical purity) ([6]; Benzoate salt, input before humidity exposure): 98.56
DVS sorption/desorption isotherm [7]: slightly hygroscopic
